Where two headings read alike, the source gives them in different places.
Key:
[1] = system: phosphorylation of Cdc2 Y15 (Wee1 substrate) in A427 cells; assay: Phosphorylated Cdc2 MSD Electrochemiluminescence Assay; type: cell-based; details: Homo sapiens
How it was run: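 A427 cells (RPMI 1640, 10% FBS) treated 20 h after plating with 3-fold serial compound dilutions, in duplicate, 37 °C, 5% CO2; total incubation 6 h. Lysate Cdc2 pY15 read by MSD electrochemiluminescence sandwich immunoassay; % remaining signal normalised to DMSO (high) and reference Wee1 inhibitor (low) controls.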

[2] = target: T1, Wee1 kinase domain (Homo sapiens, UniProt P30291); assay: Wee1 Kinase Biochemical Assay (ADP-Glo); details: 15 uM ATP
T1 construct: Wee1 kinase domain was purchased from Carna (catalog #05-177); purchased Carna 05-177
How it was run: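 1 nM enzyme; 15 uM ATP; 2 ng/mL poly(Lys,Tyr 4:1); 40 mM Tris-HCl, 20 mM MgCl2, 0.1 mg/mL BSA, 2 mM DTT; 4 h, 25 °C; ADP-Glo; % inhibition vs DMSO and saturating positive-control wells.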

[3] = A-427, class symbols, read-out: A427 pCDC2 MSD IC50
[4] = class symbols, 1 nM Wee1 enzyme, 4 hours at 25° C.

T1 sequence (P30291 299-569 limits assumed): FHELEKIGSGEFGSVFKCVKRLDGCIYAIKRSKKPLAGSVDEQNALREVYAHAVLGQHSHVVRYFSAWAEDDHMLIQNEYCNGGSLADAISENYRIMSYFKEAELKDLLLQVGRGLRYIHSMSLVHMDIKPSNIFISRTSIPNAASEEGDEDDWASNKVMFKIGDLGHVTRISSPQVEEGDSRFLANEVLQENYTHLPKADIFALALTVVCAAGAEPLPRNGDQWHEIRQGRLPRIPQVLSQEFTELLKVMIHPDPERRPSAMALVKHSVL

| Compound | IC50 [1, 3] | IC50 [2, 4] | IC50 ([1]; A-427, pCDC2 MSD) | IC50 ([2]; Wee1 kinase domain, ADP-Glo) |
| --- | --- | --- | --- | --- |
| CC1(C)CC2N(c3cccc([C@@H]4CCNC4)n3)c3nc(Nc4ccc(N5CCOCC5)cc4)ncc3C2(C)CO1 (stereo in doubt) [Example 539, (4bR,8aR)-4b,7,7-trimethyl-N-(4-morpholinophenyl)-9-(6-((R)-pyrrolidin-3-yl)pyridin-2-yl)-4b,5,7,8,8a,9-hexahydropyrano[3′,4′:4,5]pyrrolo[2,3-d]pyrimidin-2-amine] | 0.1 to 1 µM | < 0.01 µM | – | – |
| C[C@H]1COC(=O)N1c1cccc(N2c3nc(Nc4ccc(N5C[C@H]6C[C@@H]5CN6C)c(F)c4)ncc3[C@@]3(C)COC(C)(C)C[C@@H]23)n1 (single isomer, unassigned) [Example 291] | – | – | 0.1 to 1 µM | < 0.01 µM |
| CN1CCC[C@H]1c1cccc(N2c3nc(Nc4ccn(C5CCOCC5)c(=O)c4)ncc3[C@@]3(C)COC(C)(C)C[C@@H]23)n1 (single isomer, unassigned) [Example 393] | – | – | 1 to 10 µM | < 0.01 µM |
| Cc1cc(Nc2ncc3c(n2)N(c2cccc([C@H]4CCCN4)n2)[C@@H]2CC(C)(C)OC[C@]32C)ccc1N1CCOCC1 (single isomer, unassigned) [Example 522] | 0.1 to 1 µM | < 0.01 µM | – | – |
| CN1CCC(c2ccc(Nc3ncc4c(n3)N(c3cccc(N=S(C)(C)=O)n3)[C@@H]3CC(C)(C)OC[C@]43C)cc2F)CC1 (single isomer, unassigned) [Example 177] | – | – | 0.1 to 1 µM | < 0.01 µM |
| CC1(C)C[C@H]2N(c3cccc(N=S(C)(C)=O)n3)c3nc(Nc4ccn(C5CCOCC5)c(=O)c4)ncc3[C@@]2(C)CO1 (single isomer, unassigned) [Example 233] | – | – | 0.1 to 1 µM | < 0.01 µM |
| Cc1cc(Nc2ncc3c(n2)N(c2cccc(N=S(C)(C)=O)n2)[C@@H]2CC(C)(C)OC[C@]32C)cnn1 (single isomer, unassigned) [Example 370] | – | – | 0.1 to 1 µM | < 0.01 µM |
| CN1C[C@@H]2C[C@H]1CN2c1ccc(Nc2ncc3c(n2)N(c2cccc(N=S(C)(C)=O)n2)[C@@H]2CC(C)(C)OC[C@]32C)cc1F (single isomer, unassigned) [Example 180] | – | – | 0.1 to 1 µM | < 0.01 µM |
| CN1CCC(n2cc(Nc3ncc4c(n3)N(c3cccc(N=S(C)(C)=O)c3)[C@@H]3CC(C)(C)OC[C@]43C)cn2)CC1 [Example 716, dimethyl((3-((4bR,8aR)-4b,7,7-trimethyl-2-((1-(1-methylpiperidin-4-yl)-1H-pyrazol-4-yl)amino)-4b,7,8,8a-tetrahydropyrano[3′,4′:4,5]pyrrolo[2,3-d]pyrimidin-9(5H)-yl)phenyl)imino)-16-sulfanone] | 1 to 10 µM | < 0.01 µM | – | – |
| CC1(C)C[C@H]2N(c3cccc(P(C)(C)=O)n3)c3nc(Nc4ccn([C@@H]5CCOC5)c(=O)c4)ncc3[C@@]2(C)CO1 [Example 783, 4-(((4bR,8aR)-9-(6-(dimethylphosphoryl)pyridin-2-yl)-4b,7,7-trimethyl-4b,5,7,8,8a,9-hexahydropyrano[3′,4′:4,5]pyrrolo[2,3-d]pyrimidin-2-yl)amino)-1-((R)-tetrahydrofuran-3-yl)pyridin-2(1H)-one] | < 0.1 µM | < 0.01 µM | – | – |
| CN1CCC(n2cc(Nc3ncc4c(n3)N(c3cccc(C(C)(C)O)n3)[C@@H]3CC(C)(C)OC[C@]43C)cn2)CC1 (single isomer, unassigned) [Example 11] | – | – | 0.1 to 1 µM | < 0.01 µM |
| Cc1cc(Nc2ncc3c(n2)N(c2cccc(N=S(C)(C)=O)n2)[C@@H]2CC(C)(C)OC[C@]32C)ccc1[C@@H]1CCN(C)C1 (single isomer, unassigned) [Example 145] | – | – | < 0.1 µM | < 0.01 µM |
| CN1CCN(c2ccc(Nc3ncc4c(n3)N(c3ccn(C)n3)[C@@H]3CC(C)(C)OC[C@]43C)cc2)CC1 (single isomer, unassigned) [Example 717] | 0.1 to 1 µM | < 0.01 µM | – | – |
| CN1C[C@@H]2CN(c3ccc(Nc4ncc5c(n4)N(c4cccc(N=S(C)(C)=O)n4)[C@@H]4CC(C)(C)OC[C@]54C)cc3)C[C@@H]2C1 (single isomer, unassigned) [Example 217] | – | – | 0.1 to 1 µM | < 0.01 µM |
| CN1C[C@H]2C[C@@H]1CN2c1ccc(Nc2ncc3c(n2)N(c2cccc(N4CCOC4=O)n2)[C@@H]2CC(C)(C)OC[C@]32C)cc1F [Example 668, 3-(6-((4bR,8aR)-2-((3-fluoro-4-((1R,4R)-5-methyl-2,5-diazabicyclo[2.2.1]heptan-2-yl)phenyl)amino)-4b,7,7-trimethyl-4b,7,8,8a-tetrahydropyrano[3′,4′:4,5]pyrrolo[2,3-d]pyrimidin-9(5H)-yl)pyridin-2-yl)oxazolidin-2-one] | 0.1 to 1 µM | < 0.01 µM | – | – |
| C[C@H]1CCC(=O)N1c1cccc(N2c3nc(Nc4cnn(C5CCN(C)CC5)c4)ncc3C3(C)COC(C)(C)CC23)n1 (stereo in doubt) [Example 556, (S)-5-methyl-1-(6-((4bR,8aR)-4b,7,7-trimethyl-2-((1-(1-methylpiperidin-4-yl)-1H-pyrazol-4-yl)amino)-4b,7,8,8a-tetrahydropyrano[3′,4′:4,5]pyrrolo[2,3-d]pyrimidin-9(5H)-yl)pyridin-2-yl)pyrrolidin-2-one] | 0.1 to 1 µM | < 0.01 µM | – | – |

Other lines, results leading:

| IC50 [1, 3] | IC50 [2, 4] | IC50 ([1]; A-427, pCDC2 MSD) | IC50 ([2]; Wee1 kinase domain, ADP-Glo) | Compound |
| --- | --- | --- | --- | --- |
| 0.1 to 1 µM | < 0.01 µM | – | – | CN1CC[C@H](c2ccc(Nc3ncc4c(n3)N(c3cccc(N5CCOC5=O)n3)[C@@H]3CC(C)(C)OC[C@]43C)cc2)C1 (single isomer, unassigned) [Example 602] |
| – | – | 0.1 to 1 µM | < 0.01 µM | CNCc1cccc(N2c3nc(Nc4ccc5c(c4)C(=O)N(C)C5)ncc3[C@@]3(C)COC(C)(C)C[C@@H]23)n1 (single isomer, unassigned) [Example 32] |
| – | – | 0.1 to 1 µM | < 0.01 µM | CNCc1cccc(N2c3nc(Nc4ccc(C(C)(C)C)cc4)ncc3[C@@]3(C)COC(C)(C)C[C@@H]23)n1 (single isomer, unassigned) [Example 73] |
| 0.1 to 1 µM | < 0.01 µM | – | – | CN[C@@H]1CCc2ccc(N3c4nc(Nc5ccc(N6CCOCC6)cc5)ncc4[C@@]4(C)COC(C)(C)C[C@@H]34)nc21 (single isomer, unassigned) [Example 553] |
| – | – | < 0.1 µM | < 0.01 µM | CNCc1cccc(N2c3nc(Nc4ccc([C@@H]5CCC(=O)N5C)cc4)ncc3[C@@]3(C)COC(C)(C)C[C@@H]23)n1 (single isomer, unassigned) [Example 52] |
| – | – | 0.1 to 1 µM | < 0.01 µM | CNCc1cccc(N2c3nc(Nc4ccc(N5CCC(F)(F)CC5)cc4)ncc3[C@@]3(C)COC(C)(C)C[C@@H]23)n1 (single isomer, unassigned) [Example 16] |
| 0.1 to 1 µM | < 0.01 µM | – | – | CN1C[C@@H]2C[C@H]1CN2c1ccc(Nc2ncc3c(n2)N(c2cccc(C(C)(C)O)n2)[C@@H]2CC(C)(C)OC[C@]32C)cc1 (single isomer, unassigned) [Example 416] |
| 0.1 to 1 µM | < 0.01 µM | – | – | CN1CC[C@@H](Oc2ccc(Nc3ncc4c(n3)N(c3cccc(N5CCCC5=O)n3)[C@@H]3CC(C)(C)OC[C@]43C)cc2)C1 [Example 626, 1-(6-((4bR,8aR)-4b,7,7-trimethyl-2-((4-(((R)-1-methylpyrrolidin-3-yl)oxy)phenyl)amino)-4b,7,8,8a-tetrahydropyrano[3′,4′:4,5]pyrrolo[2,3-d]pyrimidin-9(5H)-yl)pyridin-2-yl)pyrrolidin-2-one] |
| 0.1 to 1 µM | < 0.01 µM | – | – | C[C@H]1CCC(=O)N1c1cccc(N2c3nc(Nc4ccc(N5C[C@H]6C[C@@H]5CN6C)cc4)ncc3[C@@]3(C)COC(C)(C)C[C@@H]23)n1 [Example 657, (S)-5-methyl-1-(6-((4bR,8aR)-4b,7,7-trimethyl-2-((4-((1R,4R)-5-methyl-2,5-diazabicyclo[2.2.1]heptan-2-yl)phenyl)amino)-4b,7,8,8a-tetrahydropyrano[3′,4′:4,5]pyrrolo[2,3-d]pyrimidin-9(5H)-yl)pyridin-2-yl)pyrrolidin-2-one] |
| – | – | 0.1 to 1 µM | < 0.01 µM | CNCc1cccc(N2c3nc(Nc4ccc([C@@]5(C)CCN(C)C5=O)cc4)ncc3[C@@]3(C)COC(C)(C)C[C@@H]23)n1 (single isomer, unassigned) [Example 80] |
| – | – | 0.1 to 1 µM | < 0.01 µM | C[C@H]1COC(=O)N1c1cccc(N2c3nc(Nc4ccc(C5CCN(C)CC5)nc4)ncc3[C@@]3(C)COC(C)(C)C[C@@H]23)n1 (single isomer, unassigned) [Example 297] |
| – | – | 0.1 to 1 µM | < 0.01 µM | C[C@H]1COC(=O)N1c1cccc(N2c3nc(Nc4ccc([C@@H]5CCN(C)C5)cc4)ncc3[C@@]3(C)COC(C)(C)C[C@@H]23)n1 (single isomer, unassigned) [Example 305] |
| – | – | 0.1 to 1 µM | < 0.01 µM | CN[C@@H]1CCN(c2ccc(Nc3ncc4c(n3)N(c3cccc(N5C(=O)OC[C@@H]5C)n3)[C@@H]3CC(C)(C)OC[C@]43C)cc2)C1 (single isomer, unassigned) [Example 319] |
| 0.1 to 1 µM | < 0.01 µM | – | – | C[C@H]1CCC(=O)N1c1cccc(N2c3nc(Nc4ccc(N5C[C@@H]6C[C@H]5CN6C)cc4)ncc3[C@@]3(C)COC(C)(C)C[C@@H]23)n1 [Example 651, (S)-5-methyl-1-(6-((4bR,8aR)-4b,7,7-trimethyl-2-((4-((1S,4S)-5-methyl-2,5-diazabicyclo[2.2.1]heptan-2-yl)phenyl)amino)-4b,7,8,8a-tetrahydropyrano[3′,4′:4,5]pyrrolo[2,3-d]pyrimidin-9(5H)-yl)pyridin-2-yl)pyrrolidin-2-one] |

Reference: US20260166039A1 (SCHRÖDINGER, INC., priority 2022, published 2026)
